From the CATMoS acute toxicity set (Mansouri et al. 2021)

Test: GHS categories as the set defines them, by LD50: 1 up to 5, 2 up to 50, 3 up to 300, 4 up to 2000, 5 above 2000 mg/kg
Conditions: rat; in vivo; po
Text: […]The data set underlying the modeling effort for this project was initially compiled by NICEATM and U.S. EPA’s CCTE. Briefly, LD50 data were collected from rat acute oral systemic toxicity tests, including limit tests, ranges/confidence intervals, and discrete LD50 values. The full data set included 21,200 LD50 entries for 15,688 substances. […] Data were reviewed to ensure that LD50 values with obvious errors in the extracted data such as unit conversion errors (e.g., comma and decimal separator misplacements) were either fixed or removed. After this review, 16,209 LD50 values remained. Many of the chemicals represented had multiple LD50 entries, requiring that a single representative value per Chemical Abstracts Service Registry Number (CASRN) identifier be defined to facilitate modeling efforts. Based on ATWG feedback and to define the representative LD50 as a protective value while accounting for the distribution across multiple LD50s, the median of the lowest quartile was computed using only discrete LD50 values (omitting limit test data and range and confidence interval data). A detailed summary of the data compilation is available online on the NICEATM webpage dedicated to the collaborative modeling project (NTP 2020).
[…][…] For categorical designations, limit test and range/confidence interval LD50 data were integrated wherever possible. As such, the number of chemicals with end point values/calls varies across the modeling end points (Table 3) based on whether chemicals had representative LD50 values and/or other data. If a chemical had both, the representative value was used to determine categorical calls rather than limit test data. Some data were useable only for certain end points and categories depending on the thresholds. For example, ranges that spanned multiple hazard categories were considered only for the binary (very toxic/nontoxic) end points and omitted from rendering a determination for hazard category assignment.
[…]The final data set comprising 11,992 chemicals was split into training and evaluation sets […], respectively. This process was performed semirandomly by ordering chemicals based on the five end points (categorical and continuous LD50 values) and partitioning every fourth record into the evaluation set accordingly. This approach was taken to ensure an equivalent distribution of the LD50 values and the different hazard categories between the training and the evaluation sets without supervised sampling of the chemicals based on structures (Figure 1A). The sources of the chemical structures were also kept equivalent between the two sets, with chemical structures obtained from DSSTox, being the highest quality, representing over 75% of each set (Figure 1B).

Structure (SMILES) | GHS category
Cc1ccc(Nc2ccc(Nc3ccc(C)cc3S(=O)(=O)O)c3c2C(=O)c2ccccc2C3=O)c(S(=O)(=O)O)c1 | 5
CN1C(=O)C(C)(C)Oc2cc(C(=O)c3ccccc3)ccc21 | 5
CNC(=O)c1sc(-c2ccc(OC)c(OC)c2)nc1C | 5
CCCOC(C)OCCc1ccccc1 (configuration not stated) | 5
CC(CC(C)(C)C)CC(C)(C)CC(C)(C)C (configuration not stated) | 5
CCN(Cc1cccc(S(=O)(=O)O)c1)c1ccc(C(=C2C=CC(=[N+](CC)Cc3cccc(S(=O)(=O)[O-])c3)C=C2)c2ccccc2)cc1 | 5
C=CC1=C(C(=O)O)N2C(=O)[C@@H](NC(=O)/C(=N\O)c3csc(N)n3)[C@H]2SC1 | 5
CC1CC(OC(=O)C(C)Oc2ccc(F)cc2)CC(C)(C)C1 (configuration not stated) | 5
CC1CC(OC(=O)COc2ccccc2Cl)CC(C)(C)C1 (configuration not stated) | 5
O=C(NCC(O)CCl)c1ccc([N+](=O)[O-])cc1 (configuration not stated) | 3
C[Si](Cl)(Cl)c1ccccc1 | 3
COc1cccc(N(C)C(=S)Oc2cccc(C(C)(C)C)c2)n1 | 5
CNC(=O)c1cc(C(O)CNC(C)(C)CCN2C(=O)OC(C)(C)c3ccccc32)ccc1O (configuration not stated) | 4
CCCCCCC1(C)CCC(=O)O1 (configuration not stated) | 5
O=C(O)c1cc(=O)c2c(OCC(O)COc3cccc4oc(C(=O)O)cc(=O)c34)cccc2o1 | 5
CC(O)CN(CC(C)O)C(=O)CCCCC(=O)N(CC(C)O)CC(C)O (configuration not stated) | 5
C[N+](C)(C)CC(=O)[O-] | 5
CC(C)CCCC1CCC(C)(C(=O)O)CC1 (configuration not stated) | 5
C[SiH]1O[SiH](C)O[SiH](C)O[SiH](C)O[SiH](C)O1 (configuration not stated) | 5
S=C(SSSSSSC(=S)N1CCCCC1)N1CCCCC1 | 5
CCCCCCC(C(C)=O)C(=O)OCC (configuration not stated) | 5

Structure (SMILES) | GHS category
CC(C)(Sc1cc(C(C)(C)C)c(O)c(C(C)(C)C)c1)Sc1cc(C(C)(C)C)c(O)c(C(C)(C)C)c1 | 5
CNC(=O)c1sc(-c2ccc(OC)cc2)nc1C | 5
Nc1ccn([C@@H]2O[C@H](CO)[C@@H](O)[C@@H]2O)c(=O)n1 | 5
Oc1cn2c(n1)Nc1ccc(Cl)c(Cl)c1C2 | 4
CC1CCCCCCCCCCCCC(=O)C1 (configuration not stated) | 5
CCS(=O)(=O)c1cccnc1S(=O)(=O)NC(=O)Nc1nc(OC)cc(OC)n1 | 5
Cc1c(Cl)ccc(O)c1Cl | 5
CCCCOC(=O)Cc1ccccc1 | 5
Cc1cc(C2(c3ccc(O)cc3)NC(=O)NC2=O)ccc1O (configuration not stated) | 5
CSC(C)=NOC(=O)N(C)SN(C)C(=O)Oc1ccccc1OC(=O)N(C)SN(C)C(=O)ON=C(C)SC | 4
CCCCCCOC(=O)CCCCC(=O)OCCCCCC | 5
CC(C)(C)c1ccc(C2=C3C(=O)NC(c4ccc(C(C)(C)C)cc4)=C3C(=O)N2)cc1 | 5
CCN(C(=O)CCCCc1nnnn1-c1ccccc1)C1CCCCC1 | 4
COc1ccc2c(c1)CCN(c1ccccc1)C2c1cccc(Br)c1 (configuration not stated) | 4
CC12CCC(O)C=C1C(O)CC1(O)C2CCC2(C)C(c3ccc(=O)oc3)CCC21O (configuration not stated) | 2
C[Si]1(C)O[Si](C)(C)O[Si](C)(C)O[Si](C)(C)O[Si](C)(C)O[Si](C)(C)O1 | 5
O=C(O)c1ccccc1N1C(=O)C(Cl)C1c1ccccc1 (configuration not stated) | 4
CC12CCC(=O)NC1=CCC1C2CCC2(C)C(C(=O)O)CCC12 (configuration not stated) | 5
CCOC(=O)CP(=O)(OCC)OCC | 5
CN1CCN(c2c(F)cc3c(=O)c(C(=O)O)cn(CCF)c3c2F)CC1 | 5
OC1(c2ccccc2)c2c(Cl)cccc2C2=NCCN21 (configuration not stated) | 4

Structure (SMILES) | GHS category
N#Cc1ccc(N(c2ccc(C#N)cc2)c2ccc3c(c2)C(=O)N(Cc2cccnc2)C3=O)cc1 | 5
ClCC(Cl)C(Cl)(Cl)Cl (configuration not stated) | 4
NCCCCCCCCCCCC(=O)O | 5
C[Si]1(C)O[Si](C)(C)O[Si](C)(C)O[Si](C)(C)O[Si](C)(C)O1 | 5
O=COC1CCC2CCCCC2C1 (configuration not stated) | 5
COc1ccccc1N1CCN(/C(=N\CC(C)C)Nc2ccc(Cl)c(Cl)c2)CC1 | 4
CCCC(=O)OCCC(C)C | 5
Cc1ccn2c(=O)c(C(=O)NC3CCCC3)cnc2c1 | 3
CC[N+](C)(CC)CCSC1=Nc2ccccc2N=C(c2ccc(Sc3ccccc3)cc2)C1 | 5
CC1=C(C(=O)O)N2C(=O)[C@@H](NC(=O)[C@H](N)C3=CCC=CC3)[C@H]2SC1 | 5
O=c1[nH]c(=O)[nH]c(=O)[nH]1 | 5
O=C1CCc2c(OCC(O)CN3CCC(Cc4ccccc4)CC3)cccc2N1Cc1ccccc1 (configuration not stated) | 4
NS(=O)(=O)C(F)(F)C(F)(F)C(F)(F)C(F)(F)C(F)(F)C(F)(F)C(F)(F)C(F)(F)F | 3
CO/N=C(\C(=O)N[C@@H]1C(=O)N2C(C(=O)OCOC(=O)C(C)(C)C)=C(/C=C\c3scnc3C)CS[C@H]12)c1csc(N)n1 | 5
CN(C)c1ccc(C=Nc2ccccc2C(=O)O)cc1 | 4
CC[C@H]1C[C@@H]2CC[C@@H](O2)[C@@H](C)C(=O)O[C@H](CC)C[C@H]2CC[C@H](O2)[C@H](C)C(=O)O[C@@H](CC)C[C@@H]2CC[C@@H](O2)[C@@H](C)C(=O)O[C@H](CC)C[C@H]2CC[C@H](O2)[C@H](C)C(=O)O1 | 5
CC(C)(C)CC(C)(C)c1ccc(O)c(Cc2ccc(Cl)cc2Cl)c1 | 5
COc1cc(S(=O)(=O)O)c(C)cc1/N=N/c1c(O)ccc2cc(S(=O)(=O)O)ccc12 | 5
NC(=O)Oc1ccccc1C(=O)Oc1ccccc1Cl | 5
CCOC(C)(C)C | 5
COc1ccccc1C=CC=O | 5

Structure (SMILES) | GHS category
CCc1ccccc1OP(=O)(Oc1ccccc1CC)Oc1ccccc1CC | 5
Cc1ncc(CSSCc2cnc(C)c(O)c2CN)c(CN)c1O | 5
O=C1CCCCCCCCCOCCCCCO1 | 5
C(=C\c1ccccc1)/CN1CCN(C(c2ccccc2)c2ccccc2)CC1 | 5
CS(=O)(=O)c1ccc(O)c(Cl)c1 | 4
CCC(CO)(CO)C(=O)O | 5
CCCCCCCCCCCC(=O)N(C)CC(=O)O | 5
CCCCCCCCCCCCBr | 5
COc1cc(OC)c2oc(C3(Cn4cncn4)OCCO3)cc2c1 | 4
CCCC(=O)c1ccc(NC)c(O)c1 | 5
C=C[Si](C)(C)Cl | 3
CCOC(=O)C(=O)Nc1cc(SCCOC(=O)C(=O)OCC)nc(C)n1 | 4
C[Si](Cl)(Cl)C1CCCCC1 | 5
CC#CCn1c(Br)nc2c1c(=O)[nH]c(=O)n2C | 4
CC(=O)Nc1ccc(S(=O)(=O)O)c2cc(S(=O)(=O)O)c(/N=N/c3ccc(/N=N/c4ccc(S(=O)(=O)O)cc4)c4ccc(S(=O)(=O)O)cc34)c(O)c12 | 5
C=CCCCCCCCCC(=O)NCC(=O)O | 5
Nc1ccc(-c2ccc(N)c3c2C(=O)c2ccccc2C3=O)c2c1C(=O)c1ccccc1C2=O | 5
CCO[Si](C)(CCCN)OCC | 5
CCO[Si](CC(C)C)(OCC)OCC | 5
